From ChEMBL document CHEMBL1201862, “PubChem BioAssay data set” (2004) come the findings set out here.

Among the test systems are HCT-116; NCI-H522; UACC-257; CAKI-1; OVCAR-8; SNB-19; HOP-92; CCRF-CEM; MDA-N; HL-60; BT-549; UACC-62; HCC 2998; A498; K562; SNB-75; HT-29; Hs-578T; LOX IMVI; T47D.
What all share (experiment): growth of human tumour cells (NCI), 48 h

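How tested: cells in 96-well plates exposed to compound for 48 hours at five concentrations. GI50 is the concentration that inhibits growth by half.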 Active and inactive are the calls of the source. No stated cut-off is given here; in the data, active = GI50 up to about 1.1 µM and inactive = higher.

For the compound `COc1ccc(C(c2ccc(OC)cc2)N2C(=O)CCC2C(=O)O)cc1` (stereo not drawn), the GI50 in the assay on HCT-116, in the assay with NCI-H522, in the assay with UACC-257, in the assay with CAKI-1, with OVCAR-8 and with SNB-19 was > 100 µM (inactive) throughout. Moreover, the GI50 with HOP-92, in the assay on CCRF-CEM, in the assay on MDA-N, with HL-60, in the assay with BT-549 and in the assay on UACC-62 was > 100 µM (inactive) each time. For the same compound, the GI50 in the assay with HCC 2998, in the assay on A498, in the assay on K562, in the assay with SNB-75, in the assay with HT-29 and in the assay with Hs-578T was > 100 µM (inactive) in each case. Further, the GI50 in the assay with LOX IMVI and in the assay on T47D was > 100 µM (inactive) each time.

For the compound `CCOC(=O)C1(C(=O)OCC)C[C@H]2CON=C2[C@@H]1c1ccc(C(F)(F)F)cc1`, the GI50 with HCT-116 is 29.6 µM (inactive); in the assay with NCI-H522 it was 24.7 µM (inactive); in the assay with UACC-257, 30.8 µM (inactive); in the assay on CAKI-1 it was 30.9 µM (inactive); in the assay with OVCAR-8, 79.4 µM (inactive); with SNB-19 it was > 100 µM (inactive). The GI50 in the assay on HOP-92 is 50.4 µM (inactive); in the assay with CCRF-CEM, 7.96 µM (inactive); in the assay on MDA-N, 45.7 µM (inactive); with HL-60 it was 27.7 µM (inactive); in the assay with BT-549, 44.7 µM (inactive); with UACC-62, 96.2 µM (inactive). For the same compound, the GI50 with HCC 2998 was 31.9 µM (inactive); in the assay with A498 it was 53.1 µM (inactive); in the assay with K562 it was 35.2 µM (inactive); in the assay on SNB-75 it was 62.5 µM (inactive); with HT-29 it was 32 µM (inactive); in the assay on Hs-578T it was 98.6 µM (inactive). For the same compound, the figures for the GI50 in the assay with LOX IMVI and with T47D were 16.6 µM (inactive) and 16.7 µM (inactive), respectively.

With `COc1cc2c(cc1O)[C@]1(Cc3ccc4c(c3C1=O)OCO4)N(C)CC2`, the GI50 with HCT-116, with NCI-H522, in the assay on UACC-257, in the assay with CAKI-1, in the assay on OVCAR-8 and in the assay with SNB-19 was > 100 µM (inactive) throughout. The GI50 with HOP-92, in the assay with CCRF-CEM, in the assay on MDA-N, in the assay on HL-60, in the assay on BT-549 and in the assay on UACC-62 was > 100 µM (inactive) in each case. In addition, the GI50 with HCC 2998 is > 100 µM (inactive); in the assay on A498 it was > 100 µM (inactive); with K562, > 100 µM (inactive); with SNB-75, 73.5 µM (inactive); in the assay with HT-29, > 100 µM (inactive); in the assay on Hs-578T, > 100 µM (inactive). For the same compound, in the assay on T47D, the GI50 is > 100 µM (inactive).

Consider `c1ccc(-c2cc(-c3cc(-c4ccccc4)no3)on2)cc1`, for which the GI50 was 55.8 µM (inactive) in the assay on HCT-116; > 100 µM (inactive) in the assay with NCI-H522; > 100 µM (inactive) in the assay on UACC-257; > 100 µM (inactive) in the assay on CAKI-1; 13.8 µM (inactive) with OVCAR-8; 49.3 µM (inactive) in the assay with SNB-19. The GI50 is 24.5 µM (inactive) in the assay on HOP-92; 27.4 µM (inactive) in the assay with CCRF-CEM; > 100 µM (inactive) in the assay with MDA-N; > 100 µM (inactive) with HL-60; > 100 µM (inactive) in the assay with BT-549; > 100 µM (inactive) in the assay on UACC-62. The GI50 in the assay with HCC 2998 was > 100 µM (inactive); in the assay on A498, > 100 µM (inactive); in the assay on K562, 17.9 µM (inactive); in the assay with HT-29 it was > 100 µM (inactive); with Hs-578T, 47.6 µM (inactive); with LOX IMVI it was 40.8 µM (inactive). For the same compound, the GI50 in the assay with T47D was 81.3 µM (inactive).

Turning to `Nn1c(-c2ccccc2)nn(C(=O)c2ccccc2)c1=O`, the GI50 in the assay on HCT-116, in the assay with NCI-H522, with UACC-257, with OVCAR-8, in the assay on SNB-19 and in the assay with HOP-92 was > 100 µM (inactive) each time. The GI50 in the assay with CCRF-CEM, in the assay on MDA-N, in the assay with HL-60, with BT-549, with HCC 2998 and in the assay with A498 was > 100 µM (inactive) in each case. Further, the GI50 with K562, in the assay on SNB-75, with HT-29, in the assay with Hs-578T, in the assay with LOX IMVI and in the assay on T47D was > 100 µM (inactive) in each case.

Take `COC(=O)c1c2c(cc3c1CC1(Cc4ccc(C(C)=O)cc4C1)C3)CCC2` (stereo not drawn): the GI50 in the assay with HCT-116 is 36.3 µM (inactive); in the assay with NCI-H522, 21 µM (inactive); in the assay on UACC-257 it was 25.2 µM (inactive); with CAKI-1, 53.3 µM (inactive); with OVCAR-8, 68.9 µM (inactive); with HOP-92 it was 93.3 µM (inactive). In addition, the GI50 in the assay with CCRF-CEM was 27.7 µM (inactive); with MDA-N, 7.64 µM (inactive); in the assay on HL-60, 17.1 µM (inactive); in the assay on BT-549, 56.8 µM (inactive); with UACC-62, 35.7 µM (inactive); with HCC 2998 it was > 10 µM (inactive). Also, the GI50 in the assay with A498 is 31.2 µM (inactive); in the assay with K562, 14.9 µM (inactive); in the assay with SNB-75, 30.4 µM (inactive); in the assay on HT-29, 19.5 µM (inactive); in the assay on Hs-578T, 28.4 µM (inactive); in the assay with LOX IMVI, 21.1 µM (inactive). Moreover, in the assay with T47D, the GI50 was 31.1 µM (inactive).

As to `COc1cc2c(cc1OC)-c1cc3cc(OC)c(OC)cc3c(C)[n+]1CC2.O=C([O-])CS(=O)(=O)O`, the GI50 was 73.5 µM (inactive) with HCT-116; 6.78 µM (inactive) in the assay on NCI-H522; 15.8 µM (inactive) in the assay on UACC-257; > 100 µM (inactive) with CAKI-1; > 100 µM (inactive) with OVCAR-8; 41.7 µM (inactive) with SNB-19. Also, the GI50 is 95.9 µM (inactive) with HOP-92; 6.49 µM (inactive) with CCRF-CEM; 89.3 µM (inactive) in the assay on MDA-N; > 100 µM (inactive) with HL-60; 41.7 µM (inactive) in the assay on BT-549; 23.2 µM (inactive) with UACC-62. In addition, the GI50 in the assay with HCC 2998 was 19.3 µM (inactive); in the assay on A498 it was > 100 µM (inactive); with HT-29, > 100 µM (inactive); in the assay on Hs-578T, > 100 µM (inactive); in the assay on LOX IMVI it was > 100 µM (inactive); in the assay with T47D, 2.82 µM (inactive).

Turning to `COc1cc2oc(=O)ccc2cc1CC=C(C)C` [SUBEROSIN], the GI50 was 38.6 µM (inactive) in the assay with HCT-116; 42.3 µM (inactive) in the assay on NCI-H522; 54.3 µM (inactive) in the assay on UACC-257; 40.6 µM (inactive) in the assay with CAKI-1; 44.6 µM (inactive) in the assay on OVCAR-8; 50.6 µM (inactive) in the assay on SNB-19. The GI50 with HOP-92 was 18 µM (inactive); with CCRF-CEM, 44 µM (inactive); in the assay with MDA-N it was 52.5 µM (inactive); in the assay with HL-60 it was 14.7 µM (inactive); with BT-549, 24.4 µM (inactive); in the assay on HCC 2998 it was 31 µM (inactive). Moreover, the GI50 was 27.2 µM (inactive) in the assay on A498; 51.4 µM (inactive) with K562; 41.1 µM (inactive) in the assay on SNB-75; 22.6 µM (inactive) with HT-29; 35.4 µM (inactive) in the assay on Hs-578T; 39.1 µM (inactive) with LOX IMVI. The GI50 with T47D was 15.8 µM (inactive).

For `CCOC(=O)C(CC(C)C)NC(=O)C(N)Cc1ccc(N(CCCl)CCCl)cc1` (stereo not drawn), the GI50 in the assay with HCT-116 was 3.12 µM (inactive); in the assay on NCI-H522 it was 2.66 µM (inactive); in the assay on UACC-257, 10.3 µM (inactive); in the assay on CAKI-1, 3.11 µM (inactive); in the assay with OVCAR-8, 4.91 µM (inactive); in the assay with SNB-19, 12 µM (inactive). The GI50 is 3.18 µM (inactive) with HOP-92; 0.104 µM (active) with CCRF-CEM; 12.6 µM (inactive) with MDA-N; 0.134 µM (active) in the assay on HL-60; 15.8 µM (inactive) in the assay with BT-549; 1.35 µM (inactive) in the assay with UACC-62. The GI50 is 7.35 µM (inactive) with HCC 2998; 13.9 µM (inactive) with A498; 1.58 µM (inactive) in the assay on K562; 3.94 µM (inactive) in the assay on SNB-75; 2.13 µM (inactive) in the assay on HT-29; 18.6 µM (inactive) in the assay on Hs-578T. Further, the GI50 with T47D was 2.35 µM (inactive).

Consider `CCN1C=C/C(=C\C=C\c2cc[n+](CC)c3ccccc23)c2ccccc21`, for which the GI50 in the assay on HCT-116 is 2.75 µM (inactive); with NCI-H522, 7.43 µM (inactive); in the assay with UACC-257, 3.18 µM (inactive); with OVCAR-8 it was 4.28 µM (inactive); in the assay on SNB-19 it was 4.17 µM (inactive); with HOP-92 it was 12.4 µM (inactive). Also, the GI50 in the assay on CCRF-CEM is 4.52 µM (inactive); in the assay with MDA-N it was 7.01 µM (inactive); with HL-60, 0.0135 µM (active); in the assay with BT-549, 20.7 µM (inactive); with UACC-62, 10.8 µM (inactive); in the assay with HCC 2998, 7.24 µM (inactive). Also, the GI50 was 3.78 µM (inactive) in the assay with A498; 2.64 µM (inactive) with SNB-75; 3.51 µM (inactive) with HT-29; 4.02 µM (inactive) in the assay on Hs-578T; 5.93 µM (inactive) in the assay with T47D.
